The values that follow come from patent US20260295053A1, “COMPOUNDS FOR DEGRADATION AND INHIBITION OF KRAS (G12D) PROTEIN” (Shenzhen Ionova Life Science Co., Ltd., priority 2023, published 2026).

One assay concerns AsPC-1 cells. The assay can be described thus: AsPC-1 cell proliferation assay (CellTiter Glo). Format: cell-based. The settings on record: 6 days. The essentials:
(§1)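 AsPC-1 cells were seeded at 22,000/well for degradation and 3,500/well for proliferation. Compounds in 1:3 dilutions ([…] to 1.5 nM final) ran 24 h for degradation, read by in-cell immunofluorescence of KRAS G12D normalised to β-actin, and 6 days for proliferation (CellTiter Glo luminescence). DC50/IC50 came from dose-response fits.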

The next assay deals with T1, KRAS (G12D) (Homo sapiens, UniProt P01116, G12D).
T1 construct: in-cell western with KRAS G12D antibody after 24 h
T1 sequence (P01116 1-188 isoform P01116-2 G12D): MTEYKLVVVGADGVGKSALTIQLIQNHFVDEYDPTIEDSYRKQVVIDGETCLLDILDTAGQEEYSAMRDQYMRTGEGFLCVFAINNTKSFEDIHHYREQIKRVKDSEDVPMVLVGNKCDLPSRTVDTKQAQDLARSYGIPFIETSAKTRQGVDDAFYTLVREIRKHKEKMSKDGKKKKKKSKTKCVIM
Nature of the assay: KRAS (G12D) cellular degradation assay in AsPC-1 cells. Format: cell-based. The note with it: 24 hours, antibody fluorescence (Odyssey CLX), DC50 half-maximal degradation concentration. The gist of the method:
as §1

In turn, `CO[C@@H](C)COc1nc(N2C[C@@H]3C[C@H]2CN3)c2cc(C3CC3)c(-c3c(C)c(F)cc4[nH]ncc34)c(OCc3ccc(-c4cn([C@H](C(=O)N5C[C@H](O)C[C@H]5C(=O)N[C@H](c5ccc(S(F)(F)(F)(F)F)cc5)[C@H](C)O)C(C)C)nn4)cc3)c2n1` [Example 148, (2S,4R)-1-((2S)-2-(4-(4-(((4-((1S,4S)-2,5-diazabicyclo[2.2.1]heptan-2-yl)-6-cyclopropyl-7-(6-fluoro-5-methyl-1H-indazol-4-yl)-2-((S)-2-methoxypropoxy)quinazolin-8-yl)oxy)methyl)phenyl)-1H-1,2,3-triazol-1-yl)-3-methylbutanoyl)-4-hydroxy-N-((1R,2S)-2-hydroxy-1-(4-(pentafluoro-I6-sulfaneyl)phenyl)propyl)pyrrolidine-2-carboxamide] returned a half-maximal inhibitory concentration (IC50) with AsPC-1 cells (Homo sapiens, ASPC1, 144 h) of more than 1000 nM. The compound also showed a DC50 at KRAS (G12D) of more than 1000 nM.
Compound `CCn1nccc1-c1ccc([C@H](CO)NC(=O)[C@@H]2C[C@@H](O)CN2C(=O)[C@H](C(C)C)n2cc(-c3ccc(COc4c(-c5c(C)c(F)cc6[nH]ncc56)c(C5CC5)cc5c(N(C)[C@H]6CCNC6)nc(O[C@H]6C[C@H](OC)C6)nc45)cc3)nn2)cc1` [Example 165, (2S,4R)-1-((2S)-2-(4-(4-(((6-cyclopropyl-7-(6-fluoro-5-methyl-1H-indazol-4-yl)-2-((1r,3S)-3-methoxycyclobutoxy)-4-(methyl((S)-pyrrolidin-3-yl)amino)quinazolin-8-yl)oxy)methyl)phenyl)-1H-1,2,3-triazol-1-yl)-3-methylbutanoyl)-N—((R)-1-(4-(1-ethyl-1H-pyrazol-5-yl)phenyl)-2-hydroxyethyl)-4-hydroxypyrrolidine-2-carboxamide] showed a 50% inhibitory concentration (IC50) with AsPC-1 cells (Homo sapiens, ASPC1, 144 h) of less than 10 nM. In addition, on KRAS (G12D), the DC50 was less than 10 nM.
In the assay on AsPC-1 cells (Homo sapiens, ASPC1, 144 h), `CCn1nccc1-c1ccc([C@@H](NC(=O)[C@@H]2C[C@@H](O)CN2C(=O)[C@H](C(C)C)n2cc(-c3ccc(COc4c(-c5c(C)c(F)cc6[nH]ncc56)c(C5CC5)cc5c(N6C[C@@H]7C[C@H]6CN7)nc(OCC(OC)C(F)F)nc45)cc3)nn2)[C@H](C)O)cc1` (stereo partly drawn) [Example 119, (2S,4R)-1-((2S)-2-(4-(4-(((4-((1S,4S)-2,5-diazabicyclo[2.2.1]heptan-2-yl)-6-cyclopropyl-2-(3,3-difluoro-2-methoxypropoxy)-7-(6-fluoro-5-methyl-1H-indazol-4-yl)quinazolin-8-yl)oxy)methyl)phenyl)-1H-1,2,3-triazol-1-yl)-3-methylbutanoyl)-N-((1R,2S)-1-(4-(1-ethyl-1H-pyrazol-5-yl)phenyl)-2-hydroxypropyl)-4-hydroxypyrrolidine-2-carboxamide] registered an IC50 of less than 10 nM. At KRAS (G12D), this compound registered a half-maximal degradation concentration (DC50) of less than 10 nM.
For the compound `CCn1nccc1-c1ccc([C@@H](NC(=O)[C@@H]2C[C@@H](O)CN2C(=O)[C@H](C(C)C)n2cc(-c3ccc(COc4c(-c5c(C)c(F)cc6[nH]ncc56)c(C5CC5)cc5c(N6C[C@@H]7C[C@H]6CN7)nc(O[C@H]6CC[C@H](OC)CC6)nc45)cc3)nn2)[C@H](C)O)cc1` [Example 121, (2S,4R)-1-((2S)-2-(4-(4-(((4-((1S,4S)-2,5-diazabicyclo[2.2.1]heptan-2-yl)-6-cyclopropyl-7-(6-fluoro-5-methyl-1H-indazol-4-yl)-2-(((1r,4S)-4-methoxycyclohexyl)oxy)quinazolin-8-yl)oxy)methyl)phenyl)-1H-1,2,3-triazol-1-yl)-3-methylbutanoyl)-N-((1R,2S)-1-(4-(1-ethyl-1H-pyrazol-5-yl)phenyl)-2-hydroxypropyl)-4-hydroxypyrrolidine-2-carboxamide], the IC50 in the assay with AsPC-1 cells (Homo sapiens, ASPC1, 144 h) was less than 10 nM. The DC50 on KRAS (G12D) is less than 10 nM.
In turn, `CO[C@H]1C[C@H](Oc2nc(N(C)[C@@H]3CCNC3)c3cc(C4CC4)c(-c4c(C)c(F)cc5[nH]ncc45)c(OCc4ccc(-c5cn([C@H](C(=O)N6C[C@H](O)C[C@H]6C(=O)N[C@H](c6ccc(-c7scnc7C)cc6)[C@H](C)O)C(C)C)nn5)cc4)c3n2)C1` [Example 202, (2S,4R)-1-((2S)-2-(4-(4-(((6-cyclopropyl-7-(6-fluoro-5-methyl-1H-indazol-4-yl)-2-((1r,3R)-3-methoxycyclobutoxy)-4-(methyl((R)-pyrrolidin-3-yl)amino)quinazolin-8-yl)oxy)methyl)phenyl)-1H-1,2,3-triazol-1-yl)-3-methylbutanoyl)-4-hydroxy-N-((1R,2S)-2-hydroxy-1-(4-(4-methylthiazol-5-yl)phenyl)propyl)pyrrolidine-2-carboxamide] had an IC50 in the assay on AsPC-1 cells (Homo sapiens, ASPC1, 144 h) of less than 10 nM. The same compound gave a DC50 on KRAS (G12D) of less than 10 nM.
As for `CO[C@@H](C)COc1nc(N2C[C@H]3C[C@@H]2CN3)c2cc(C3CC3)c(-c3c(C)c(F)cc4[nH]ncc34)c(OCc3ccc(-c4cn([C@H](C(=O)N5C[C@H](O)C[C@H]5C(=O)N[C@@H](CO)c5ccc(-c6scnc6C)cc5)C(C)C)nn4)cc3)c2n1` (single isomer, unassigned) [Example 2B], the IC50 in the assay with AsPC-1 cells is more than 1000 nM. The DC50 on KRAS (G12D) was more than 1000 nM.
For the compound `CCn1nccc1-c1ccc([C@H](CO)NC(=O)[C@@H]2C[C@@H](O)CN2C(=O)[C@H](C(C)C)n2cc(-c3ccc(COc4c(-c5c(C)c(F)cc6[nH]ncc56)c(C5CC5)cc5c(N6C7CNCC6COC7)nc(OC[C@H](C)OC)nc45)cc3)nn2)cc1` [Example 61, (2S,4R)-1-((2S)-2-(4-(4-(((4-(3-oxa-7,9-diazabicyclo[3.3.1]nonan-9-yl)-6-cyclopropyl-7-(6-fluoro-5-methyl-1H-indazol-4-yl)-2-((S)-2-methoxypropoxy)quinazolin-8-yl)oxy)methyl)phenyl)-1H-1,2,3-triazol-1-yl)-3-methylbutanoyl)-N—((R)-1-(4-(1-ethyl-1H-pyrazol-5-yl)phenyl)-2-hydroxyethyl)-4-hydroxypyrrolidine-2-carboxamide], in the assay on AsPC-1 cells (Homo sapiens, ASPC1, 144 h), the concentration for half-maximal inhibition (IC50) fell in the range of 10 to 100 nM. At KRAS (G12D), this compound returned a DC50 of 10 to 100 nM.
`CCn1nccc1-c1ccc([C@H](CO)NC(=O)[C@@H]2C[C@@H](O)CN2C(=O)[C@H](C(C)C)n2cc(-c3ccc(COc4c(-c5c(C)c(F)cc6[nH]nc(F)c56)c(C5CC5)cc5c(N6C[C@@H]7C[C@H]6CN7)nc(OC[C@H](C)OC)nc45)cc3)nn2)cc1` [Example 33, (2S,4R)-1-((2S)-2-(4-(4-(((4-((1S,4S)-2,5-diazabicyclo[2.2.1]heptan-2-yl)-6-cyclopropyl-7-(3,6-difluoro-5-methyl-1H-indazol-4-yl)-2-((S)-2-methoxypropoxy)quinazolin-8-yl)oxy)methyl)phenyl)-1H-1,2,3-triazol-1-yl)-3-methylbutanoyl)-N—((R)-1-(4-(1-ethyl-1H-pyrazol-5-yl)phenyl)-2-hydroxyethyl)-4-hydroxypyrrolidine-2-carboxamide] showed a half-inhibitory concentration (IC50) with AsPC-1 cells (Homo sapiens, ASPC1, 144 h) of less than 10 nM. Moreover, the half-maximal degradation concentration (DC50) at KRAS (G12D) is less than 10 nM.
`CCn1nccc1-c1ccc([C@H](CO)NC(=O)[C@@H]2C[C@@H](O)CN2C(=O)[C@H](C(C)C)n2cc(-c3ccc(COc4c(-c5c(C)c(F)cc6[nH]ncc56)c(C5CC5)cc5c(N6C[C@@H]7C[C@H]6CN7)nc(OC6CCC(OC)C6)nc45)cc3)nn2)cc1` (stereo partly drawn) [Example 86, (2S,4R)-1-((2S)-2-(4-(4-(((4-((1S,4S)-2,5-diazabicyclo[2.2.1]heptan-2-yl)-6-cyclopropyl-7-(6-fluoro-5-methyl-1H-indazol-4-yl)-2-((3-methoxycyclopentyl)oxy)quinazolin-8-yl)oxy)methyl)phenyl)-1H-1,2,3-triazol-1-yl)-3-methylbutanoyl)-N—((R)-1-(4-(1-ethyl-1H-pyrazol-5-yl)phenyl)-2-hydroxyethyl)-4-hydroxypyrrolidine-2-carboxamide]: the IC50 with AsPC-1 cells (Homo sapiens, ASPC1, 144 h) was less than 10 nM. Moreover, on KRAS (G12D), the 50% degradation concentration (DC50) is less than 10 nM.
`CCn1nccc1-c1ccc([C@@H](NC(=O)[C@@H]2C[C@@H](O)CN2C(=O)[C@H](C(C)C)n2cc(-c3ccc(COc4c(-c5c(C)c(F)cc6[nH]ncc56)c(C5CC5)cc5c(N6C[C@@H]7C[C@H]6CN7)nc(O[C@H]6C[C@H](OC)C6)nc45)cc3)nn2)[C@H](C)O)cc1` [Example 109, (2S,4R)-1-((2S)-2-(4-(4-(((4-((1S,4S)-2,5-diazabicyclo[2.2.1]heptan-2-yl)-6-cyclopropyl-7-(6-fluoro-5-methyl-1H-indazol-4-yl)-2-((1r,3S)-3-methoxycyclobutoxy)quinazolin-8-yl)oxy)methyl)phenyl)-1H-1,2,3-triazol-1-yl)-3-methylbutanoyl)-N-((1R,2S)-1-(4-(1-ethyl-1H-pyrazol-5-yl)phenyl)-2-hydroxypropyl)-4-hydroxypyrrolidine-2-carboxamide]: the half-inhibitory concentration (IC50) with AsPC-1 cells (Homo sapiens, ASPC1, 144 h) was less than 10 nM. The DC50 on KRAS (G12D) is less than 10 nM.
Regarding `Cc1ncsc1-c1ccc([C@@H](NC(=O)[C@@H]2C[C@@H](O)CN2C(=O)[C@H](C(C)C)n2cc(-c3ccc(COc4c(-c5c(C)c(F)cc6[nH]ncc56)c(C5CC5)cc5c(N6C[C@@H]7C[C@H]6CN7)nc(OC6CCOCC6)nc45)cc3)nn2)[C@@H](O)C2CC2)cc1` [Example 138, (2S,4R)-1-((2S)-2-(4-(4-(((4-((1S,4S)-2,5-diazabicyclo[2.2.1]heptan-2-yl)-6-cyclopropyl-7-(6-fluoro-5-methyl-1H-indazol-4-yl)-2-((tetrahydro-2H-pyran-4-yl)oxy)quinazolin-8-yl)oxy)methyl)phenyl)-1H-1,2,3-triazol-1-yl)-3-methylbutanoyl)-N-((1R,2S)-2-cyclopropyl-2-hydroxy-1-(4-(4-methylthiazol-5-yl)phenyl)ethyl)-4-hydroxypyrrolidine-2-carboxamide], in the assay on AsPC-1 cells (Homo sapiens, ASPC1, 144 h), the 50% inhibitory concentration (IC50) was less than 10 nM. Also, on KRAS (G12D), the DC50 is less than 10 nM.

Broadly, the IC50 is the concentration that inhibits the measured activity by half. A high value points to weaker potency in that assay. The term DC50 denotes the midpoint of the concentration-degradation curve. The low end stands for a more potent degrader, the high end for a less potent degrader.
